Test results taken from patent US20120196899A1, “METHODS AND PRODUCTS FOR TREATING INFLAMMATION” (Rock Creek Pharmaceuticals, Inc., priority 2010, published 2012).
Where “and” joins values, the source holds several entries; their conditions need not be identical. Equal entries are not always repeated. Where two headings read alike, the source gives them in different places.

Test: Plasma pharmacokinetics after oral multi-dose anatabine polacrilex
Type: in vivo, Sprague-Dawley rats
Conditions: for Anatabine Concentration in rat plasma: dose 2 mg/kg; for Avg. Conc. of anatabine in plasma: dose group 2, female; for concentration at 30 min / concentration at 60 min / concentration at 235 min / concentration at 270 min / concentration at 300 min / concentration at 475 min / concentration at 540 min / concentration at 600 min / concentration at 720 min / Tmax / half-life: Sprague-Dawley, rat, plasma; for concentration at 30 min / concentration at 60 min / concentration at 235 min / concentration at 270 min / concentration at 300 min / concentration at 475 min / concentration at 540 min / concentration at 600 min / concentration at 720 min: oral; for Tmax / half-life: po; for half-life: mean
Method: This study consisted of two groups of 8 animals each, 4 males and 4 females.
Two formulations were prepared; one for each of the two treatment groups. The test compound was formulated for each treatment group just prior to the first dose administration and constantly stirred until dosing was completed (Table 37). Four aliquots of each dose level formulation were collected and stored at −80° C.
The animals were weighed prior to dosing and received three doses p.o. of test compound at a volume of 5 mL/kg. Blood was collected via the venus plexus (retro-orbital) into tubes containing (K2) EDTA. No more than 0.5 mL was collected per time point.
Plasma was separated as per package instructions for MICROTAINER® brand collection tubes (3 minutes, 2000×g). Plasma was decanted into microfuge tubes and stored at −80° C. Remaining test compound was placed at −80° C.
Sample preparation. Plasma samples were treated with three volumes of methanol containing internal standard at 1 μM (R,S)-Antabine-2,4,5,6-d4), incubated 10 min at 4° C., and centrifuged. The amount of the test agent in the supernatant was determined by LC/MS/MS.
Analysis. Samples were analyzed by LC/MS/MS using an Agilent 6410 mass spectrometer coupled with an Agilent 1200 high pressure liquid chromatography (HPLC) and a CTC PAL chilled autosampler, all controlled by MassHunter software (Agilent). After separation on a Hydrophilic interaction liquid chromatography (HILIC) HPLC column (Sepax) using an acetonitrile-ammonium acetate/acetic acid gradient system, peaks were analyzed by mass spectrometry (MS) using ESI ionization in multiple reaction monitoring (MRM) mode. MassHunter software was used to calculate the concentration of the test compounds in samples from the peak area using the appropriate calibration curves.
Calibration samples. Calibration curves were determined in rat plasma. Calibration samples were prepared by diluting a 50× stock solution of the test compound in PBS with blank matrix to the appropriate concentration and these samples were prepared as described above in the sample preparation.
Data Analysis. Descriptive statistics were calculated for all pharmacokinetic parameters. Elimination half-lives (t1/2) were calculated by linear regression of logarithmically transformed plasma concentration data for each period between doses and following the final dose.
Total areas under the plasma concentration curves (AUC) and under the first moment curves (AUMC) were calculated using linear trapezoidal summation across all concentration time points as well as for intervals between each dose administration and following the final dose. […] Mean absorption times (MAT) were calculated according to the following relation: […]
where MRT represents the mean residence time. This was calculated from the mean residence times.
The statistical comparison of parameters between male and female animals was made using a two-tailed, unpaired, t-test with a 95 percent confidence interval. Repeated-measures analysis of variance (ANOVA) was used for multiple comparisons of Cp, max involving successive determinations on the same group of animals.

[1] = females, 6.0 mg/kg BW group, anatabine polacrilex p.o.

C1=CCC(c2cccnc2)NC1 (racemic) [Anatabine, 1,2,3,6-tetrahydro-[2,3′]bipyridinyl]
Anatabine Concentration in rat plasma (female, 270 min, individual animals 4A-4D): 324 ng/mL and 350 ng/mL
Anatabine Concentration in rat plasma (female, 300 min, individual animals 4A-4D): 216 ng/mL and 97 ng/mL and 191 ng/mL and 414 ng/mL
Anatabine Concentration in rat plasma (female, 475 min, individual animals 4A-4D): 219 ng/mL and 178 ng/mL and 179 ng/mL
Anatabine Concentration in rat plasma (female, 540 min, individual animals 4A-4D): 231 ng/mL and 314 ng/mL and 369 ng/mL and 474 ng/mL
Anatabine Concentration in rat plasma (female, 600 min, individual animals 4A-4D): 197 ng/mL and 207 ng/mL and 480 ng/mL and 288 ng/mL
Anatabine Concentration in rat plasma (female, 720 min, individual animals 4A-4D): 165 ng/mL and 217 ng/mL
Anatabine Concentration in rat plasma (male, 235 min, individual animals 3A-3D): 46 ng/mL and 63 ng/mL and 105 ng/mL
Anatabine Concentration in rat plasma (male, 270 min, individual animals 3A-3D): 364 ng/mL and 309 ng/mL
Anatabine Concentration in rat plasma (male, 300 min, individual animals 3A-3D): 232 ng/mL and 202 ng/mL
Anatabine Concentration in rat plasma (male, 475 min, individual animals 3A-3D): 97 ng/mL
Anatabine Concentration in rat plasma (male, 540 min, individual animals 3A-3D): 290 ng/mL and 173 ng/mL
Anatabine Concentration in rat plasma (male, 600 min, individual animals 3A-3D): 173 ng/mL and 130 ng/mL and 150 ng/mL
Anatabine Concentration in rat plasma (male, 720 min, individual animals 3A-3D): 401 ng/mL and 137 ng/mL and 71 ng/mL
Avg. Conc. of anatabine in plasma (30 min): 160 ng/mL
Avg. Conc. of anatabine in plasma (60 min): 129 ng/mL
Avg. Conc. of anatabine in plasma (235 min): 44 ng/mL
Avg. Conc. of anatabine in plasma (270 min): 316 ng/mL
Avg. Conc. of anatabine in plasma (300 min): 234 ng/mL
Avg. Conc. of anatabine in plasma (540 min): 386 ng/mL
Avg. Conc. of anatabine in plasma (600 min): 325 ng/mL
Avg. Conc. of anatabine in plasma (720 min): 208 ng/mL
concentration at 30 min (female, 0.2 mg/kg BW, Avg. Conc. of anatabine in plasma, dose group 0.2, female, 30 min): 37 ng/mL
concentration at 60 min (female, 0.2 mg/kg BW, Avg. Conc. of anatabine in plasma, dose group 0.2, female, 60 min): 35 ng/mL
concentration at 235 min (female, 0.2 mg/kg BW, Avg. Conc. of anatabine in plasma, dose group 0.2, female, 235 min): 12 ng/mL
concentration at 270 min (female, 0.2 mg/kg BW, Avg. Conc. of anatabine in plasma, dose group 0.2, female, 270 min): 26 ng/mL
concentration at 300 min (female, 0.2 mg/kg BW, Avg. Conc. of anatabine in plasma, dose group 0.2, female, 300 min): 34 ng/mL
concentration at 475 min (female, 0.2 mg/kg BW, Avg. Conc. of anatabine in plasma, dose group 0.2, female, 475 min): 8 ng/mL
concentration at 540 min (female, 0.2 mg/kg BW, Avg. Conc. of anatabine in plasma, dose group 0.2, female, 540 min): 34 ng/mL
concentration at 600 min (female, 0.2 mg/kg BW, Avg. Conc. of anatabine in plasma, dose group 0.2, female, 600 min): 28 ng/mL
concentration at 720 min (female, 0.2 mg/kg BW, Avg. Conc. of anatabine in plasma, dose group 0.2, female, 720 min): 12 ng/mL
concentration at 30 min (female, 0.2 mg/kg, Anatabine Concentration in rat plasma, 30 min, individual animals 2A-2D): 34 ng/mL
concentration at 60 min (female, 0.2 mg/kg, Anatabine Concentration in rat plasma, 60 min, individual animals 2A-2D): 29 ng/mL
concentration at 475 min (female, 0.2 mg/kg, Anatabine Concentration in rat plasma, 475 min, individual animals 2A-2D): 7 ng/mL
concentration at 540 min (female, 0.2 mg/kg, Anatabine Concentration in rat plasma, 540 min, individual animals 2A-2D): 24 ng/mL
concentration at 270 min (female, 2 mg/kg, Anatabine Concentration in rat plasma, 270 min, individual animals 4A-4D): 237 ng/mL
concentration at 475 min (female, 2 mg/kg, Anatabine Concentration in rat plasma, 475 min, individual animals 4A-4D): 144 ng/mL
concentration at 720 min (female, 2 mg/kg, Anatabine Concentration in rat plasma, 720 min, individual animals 4A-4D): 186 ng/mL
Tmax (female, 0.6 mg/kg, female rats, after dose 1, mean, read-out: Tmax(1)): 0.63 h
Tmax (female, 0.6 mg/kg, female rats, after dose 2, mean, read-out: Tmax(2)): 0.88 h
Tmax (female, 0.6 mg/kg, female rats, after dose 3, mean, read-out: Tmax(3)): 1.25 h
half-life (female, 0.6 mg/kg, female rats, after first dose, read-out: t1/2,0→4 (converted)): 2.06 h
half-life (female, 0.6 mg/kg, female rats, read-out: t1/2, terminal (converted)): 1.8 h
Tmax (female, 6 mg/kg, female rats, after dose 1, mean, read-out: Tmax(1)): 0.5 h
Tmax (female, 6 mg/kg, female rats, after dose 2, mean, read-out: Tmax(2)): 0.63 h
Tmax (female, 6 mg/kg, female rats, after dose 3, mean, read-out: Tmax(3)): 1.25 h
half-life (female, 6 mg/kg, female rats, after first dose, read-out: t1/2,0→4 (converted)): 1.82 h
half-life (female, 6 mg/kg, female rats, read-out: t1/2, terminal (converted)): 3.99 h
half-life (female, both treatment groups combined, female rats, read-out: t1/2,0→4 (converted)): 1.94 h
Cp, max, initial value (increase from) [1]: 259.8 ± 35.4 ng/mL
Cp, max, later value (increase to) [1]: 374.8 ± 122.9 ng/mL
Cp, min, first minimum [1]: 51.5 ± 26.0 ng/mL
Cp, min(2), second minimum (females, 6.0 mg/kg BW group, anatabine polacrilex p.o., 6 mg/kg): 180 ± 31 ng/mL and 180.0 ± 30.7 ng/mL
concentration at 300 min (male, 0.2 mg/kg BW, Avg. Conc. of anatabine in plasma, dose group 0.2, male, 300 min): 26 ng/mL
concentration at 475 min (male, 0.2 mg/kg BW, Avg. Conc. of anatabine in plasma, dose group 0.2, male, 475 min): 18 ng/mL
concentration at 540 min (male, 0.2 mg/kg BW, Avg. Conc. of anatabine in plasma, dose group 0.2, male, 540 min): 38 ng/mL
concentration at 600 min (male, 0.2 mg/kg BW, Avg. Conc. of anatabine in plasma, dose group 0.2, male, 600 min): 29 ng/mL
concentration at 720 min (male, 0.2 mg/kg BW, Avg. Conc. of anatabine in plasma, dose group 0.2, male, 720 min): 12 ng/mL
concentration at 30 min (male, 0.2 mg/kg, Anatabine Concentration in rat plasma, 30 min, individual animals 1A-1D): 29 ng/mL
concentration at 60 min (male, 0.2 mg/kg, Anatabine Concentration in rat plasma, 60 min, individual animals 1A-1D): 32 ng/mL
concentration at 235 min (male, 0.2 mg/kg, Anatabine Concentration in rat plasma, 235 min, individual animals 1A-1D): 11 ng/mL
concentration at 270 min (male, 0.2 mg/kg, Anatabine Concentration in rat plasma, 270 min, individual animals 1A-1D): 35 ng/mL
concentration at 300 min (male, 0.2 mg/kg, Anatabine Concentration in rat plasma, 300 min, individual animals 1A-1D): 22 ng/mL
concentration at 30 min (male, 0.2 mg/kg, Avg. Conc. of anatabine in plasma, dose group 0.2, male, 30 min): 33 ng/mL
concentration at 60 min (male, 0.2 mg/kg, Avg. Conc. of anatabine in plasma, dose group 0.2, male, 60 min): 30 ng/mL
concentration at 235 min (male, 0.2 mg/kg, Avg. Conc. of anatabine in plasma, dose group 0.2, male, 235 min): 11 ng/mL
concentration at 270 min (male, 0.2 mg/kg, Avg. Conc. of anatabine in plasma, dose group 0.2, male, 270 min): 26 ng/mL
concentration at 30 min (male, 2 mg/kg BW, Avg. Conc. of anatabine in plasma, dose group 2, male, 30 min): 243 ng/mL
concentration at 235 min (male, 2 mg/kg BW, Avg. Conc. of anatabine in plasma, dose group 2, male, 235 min): 72 ng/mL
concentration at 270 min (male, 2 mg/kg BW, Avg. Conc. of anatabine in plasma, dose group 2, male, 270 min): 303 ng/mL
concentration at 300 min (male, 2 mg/kg BW, Avg. Conc. of anatabine in plasma, dose group 2, male, 300 min): 183 ng/mL
concentration at 475 min (male, 2 mg/kg BW, Avg. Conc. of anatabine in plasma, dose group 2, male, 475 min): 97 ng/mL
concentration at 540 min (male, 2 mg/kg BW, Avg. Conc. of anatabine in plasma, dose group 2, male, 540 min): 226 ng/mL
concentration at 600 min (male, 2 mg/kg BW, Avg. Conc. of anatabine in plasma, dose group 2, male, 600 min): 151 ng/mL
concentration at 720 min (male, 2 mg/kg BW, Avg. Conc. of anatabine in plasma, dose group 2, male, 720 min): 203 ng/mL
concentration at 475 min (male, 2 mg/kg, Anatabine Concentration in rat plasma, 475 min, individual animals 3A-3D): 79 ng/mL
concentration at 540 min (male, 2 mg/kg, Anatabine Concentration in rat plasma, 540 min, individual animals 3A-3D): 214 ng/mL
Tmax (male, 0.6 mg/kg, male rats, after dose 1, mean, read-out: Tmax(1)): 0.75 h
Tmax (male, 0.6 mg/kg, male rats, after dose 2, mean, read-out: Tmax(2)): 0.63 h
Tmax (male, 0.6 mg/kg, male rats, after dose 3, mean, read-out: Tmax(3)): 1 h
half-life (male, 0.6 mg/kg, male rats, after first dose, read-out: t1/2,0→4 (converted)): 2.05 h
half-life (male, 0.6 mg/kg, male rats, read-out: t1/2, terminal (converted)): 1.78 h
Tmax (male, 6 mg/kg, male rats, after dose 1, mean, read-out: Tmax(1)): 0.63 h
Tmax (male, 6 mg/kg, male rats, after dose 2, mean, read-out: Tmax(2)): 0.63 h
Tmax (male, 6 mg/kg, male rats, after dose 3, mean, read-out: Tmax(3)): 2 h
half-life (male, 6 mg/kg, male rats, after first dose, read-out: t1/2,0→4 (converted)): 1.76 h
half-life (male, 6 mg/kg, male rats, read-out: t1/2, terminal (converted)): 5.07 h
half-life (male, both treatment groups combined, male rats, read-out: t1/2,0→4 (converted)): 1.92 h
